Read-outs that look alike come from different tables or passages of the source.
Tests used:
human 5-HT2A receptor = human 5-HT2A receptor (Homo sapiens (Human), UniProt P28223); assay: Human 5-HT2A radioligand binding assay ([3H]-ketanserin)
[1] = Liver microsomes stability, dog; conditions: for Predicted hepatic CL: Dog liver microsomes; for Remaining Percentage (%): Dog; for CLint scaled at 2 μM / half-life at 2 μM / microsomal CLint at 2 μM: dog, microsomes
[2] = Liver microsomes stability, human; conditions: for Predicted hepatic CL: Human liver microsomes; for Remaining Percentage (%): Human; for CLint scaled at 2 μM / half-life at 2 μM / microsomal CLint at 2 μM: human, microsomes
Description: (§1) The objective of this study was to estimate in vitro metabolic stability of representative compounds of the application in pooled human and male mouse liver microsomes. The concentrations of parent compounds in reaction systems were evaluated by LC-MS/MS for estimating the stability in pooled human and male mouse liver microsomes. The in vitro intrinsic clearances of test compounds were determined as well.
(§2) A master solution in the “Incubation Plate” containing phosphate buffer, ultra-pure H2O, MgCl2 solution and liver microsomes was made according to Table 3. The mixture was pre-warmed at 37° C. water bath for 5 minutes.
(§3) 40 μL of 10 mM NADPH solution was added to each well. The final concentration of NADPH was 1 mM. The negative control samples were prepared by replacing NADPH with 40 μL of ultra-pure H2O. Samples were prepared in duplicate. Negative controls were prepared in singlet.
(§4) The reaction was started with the addition of 4 μL of 200 μM test compounds or control compounds to each master solution to get the final concentration of 2 μM. This study was performed in duplicate.
(§5) Aliquots of 50 μL were taken from the reaction solution at 0, 15, 30, 45 and 60 minutes. The reaction solutions were stopped by the addition of 4 volumes of cold methanol with IS (100 nM alprazolam, 200 nM imipramine, 200 nM labetalol and 2 μM ketoprofen). Samples were centrifuged at 3,220 g for 40 minutes. Aliquot of 90 μL of the supernatant was mixed with 90 μL of ultra-pure H2O and then was used for LC-MS/MS analysis.
(§6) LC/MS analysis was performed for all samples from this study using a Shimadzu liquid chromatograph separation system equipped with degasser DGU-20A5R; solvent delivery unit LC-30AD; system controller SIL-30AC; column oven CTO-30A; CTC Analytics HTC PAL System. Mass spectrometric analysis was performed using an Triple Quad™ 5500 instrument.
(§7) All calculations were carried out using Microsoft Excel. Peak area ratios of test compound to internal standard (listed in the below table) were determined from extracted ion chromatograms.
(§8) All calculations were carried out using Microsoft Excel. Peak areas were determined from extracted ion chromatograms. The slope value, k, was determined by linear regression of the natural logarithm of the remaining percentage of the parent drug vs. incubation time curve.
(§9) The in vitro half-life (in vitro t1/2) was determined from the slope value:
(§10) Conversion of the in vitro t1/2(min) into the in vitro intrinsic clearance (in vitro CLint, in μL/min/mg proteins) was done using the following equation (mean of duplicate determinations): […]

[3] = Liver microsomes stability, rat; conditions: for Predicted hepatic CL: Rat liver microsomes; for Remaining Percentage (%): Rat; for CLint scaled at 2 μM / half-life at 2 μM / microsomal CLint at 2 μM: rat, microsomes
Description: as §1, §2, §3, §4, §5, §6, §7, §8, §9, §10

[4] = Liver microsomes stability, mouse; conditions: for Predicted hepatic CL: Mouse liver microsomes; for Remaining Percentage (%): Mouse; for CLint scaled at 2 μM / half-life at 2 μM / microsomal CLint at 2 μM: male, mouse, microsomes
Description: as §1, §2, §3, §4, §5, §6, §7, §8, §9, §10

In the case of `CCCCC/C=C\C/C=C\CCCCCCCC(=O)n1cc(C[C@H]2CCCN2C)c2cc(OC)ccc21` [Compound I-6, (9Z,12Z)-1-(5-Methoxy-3-(((R)-1-methylpyrrolidin-2-yl)methyl)-1H-indol-1-yl)octadeca-9,12-dien-1-one], the IC50 (human 5-HT2A receptor) is reported as < 2 µM, the “Predicted hepatic CL” value [1] is reported as 22.75 mL/min/kg and the “Remaining Percentage (%)” value ([1]; With NADPH, 0 min) is reported as 100.00%. The “Remaining Percentage (%)” value ([1]; With NADPH, 30 min) was 49.51%, the “Remaining Percentage (%)” value ([1]; With NADPH, 60 min) was 35.40% and the “Remaining Percentage (%)” value ([1]; Without NADPH, 0 min) was 100.00%. The “Remaining Percentage (%)” value ([1]; Without NADPH, 30 min) was 84.09%, the “Remaining Percentage (%)” value ([1]; Without NADPH, 60 min) was 91.76% and the CLint scaled at 2 μM [1] was 86.3 mL/min/kg. For the same compound, the half-life at 2 μM [1] was 0.667 h, the microsomal CLint at 2 μM [1] was 34.6 µL/min/mg and the “Predicted hepatic CL” value [2] was 4.62 mL/min/kg. The “Remaining Percentage (%)” value ([2]; With NADPH, 0 min) was 100.00%, the “Remaining Percentage (%)” value ([2]; With NADPH, 30 min) was 91.33% and the “Remaining Percentage (%)” value ([2]; With NADPH, 60 min) was 86.76%. For the same compound, the “Remaining Percentage (%)” value ([2]; Without NADPH, 0 min) was 100.00%, the “Remaining Percentage (%)” value ([2]; Without NADPH, 30 min) was 89.58% and the “Remaining Percentage (%)” value ([2]; Without NADPH, 60 min) was 83.22%. It also gave a CLint scaled at 2 μM [2] of 5.94 mL/min/kg, a half-life at 2 μM [2] of 4.88 h and a microsomal CLint at 2 μM [2] of 4.74 µL/min/mg. For the same compound, the “Predicted hepatic CL” value [3] was 14.24 mL/min/kg, the “Remaining Percentage (%)” value ([3]; With NADPH, 0 min) was 100.00% and the “Remaining Percentage (%)” value ([3]; With NADPH, 30 min) was 83.04%. For the same compound, the “Remaining Percentage (%)” value ([3]; With NADPH, 60 min) was 72.53%, the “Remaining Percentage (%)” value ([3]; Without NADPH, 0 min) was 100.00% and the “Remaining Percentage (%)” value ([3]; Without NADPH, 30 min) was 93.17%. The “Remaining Percentage (%)” value ([3]; Without NADPH, 60 min) was 92.62%, the CLint scaled at 2 μM [3] was 19.2 mL/min/kg and the half-life at 2 μM [3] was 2.16 h. For the same compound, the microsomal CLint at 2 μM [3] was 10.7 µL/min/mg, the “Predicted hepatic CL” value [4] was 33.37 mL/min/kg and the “Remaining Percentage (%)” value ([4]; With NADPH, 0 min) was 100.00%. The “Remaining Percentage (%)” value ([4]; With NADPH, 30 min) was 76.15%, the “Remaining Percentage (%)” value ([4]; With NADPH, 60 min) was 69.51% and the “Remaining Percentage (%)” value ([4]; Without NADPH, 0 min) was 100.00%. The “Remaining Percentage (%)” value ([4]; Without NADPH, 30 min) was 81.25%, the “Remaining Percentage (%)” value ([4]; Without NADPH, 60 min) was 91.07% and the CLint scaled at 2 μM [4] was 53 mL/min/kg. For the same compound, the half-life at 2 μM [4] was 1.91 h and the microsomal CLint at 2 μM [4] was 12.1 µL/min/mg.

Compound `[2H]c1c([2H])c([2H])c2c(c1[2H])c(CCN(C([2H])([2H])[2H])C([2H])([2H])[2H])c([2H])n2C(=O)CCCCCCC/C=C\C/C=C\CCCCC` [Compound I-7, (9Z,12Z)-1-(3-(2-(Bis(methyl-d3)amino)ethyl)-1H-indol-1-yl-2,4,5,6,7-d5)octadeca-9,12-dien-1-one] has an IC50 (human 5-HT2A receptor) of 2 to 5 µM.

With `CCCCC/C=C\C/C=C\CCCCCCCC(=O)n1cc(CCN(C)C)c2ccccc21` [Compound I-8, (9Z,12Z)-1-(3-(2-(Dimethylamino)ethyl)-1H-indol-1-yl)octadeca-9,12-dien-1-one] the IC50 (human 5-HT2A receptor; [3H]-ketanserin competition, read-out: h5-HT2A IC50) was < 2 µM, the “Predicted hepatic CL” value [1] was 18.69 mL/min/kg and the “Remaining Percentage (%)” value ([1]; With NADPH, 0 min) was 100.00%. For the same compound, the “Remaining Percentage (%)” value ([1]; With NADPH, 30 min) was 66.41%, the “Remaining Percentage (%)” value ([1]; With NADPH, 60 min) was 56.62% and the “Remaining Percentage (%)” value ([1]; Without NADPH, 0 min) was 100.00%. For the same compound, the “Remaining Percentage (%)” value ([1]; Without NADPH, 30 min) was 84.36%, the “Remaining Percentage (%)” value ([1]; Without NADPH, 60 min) was 92.44% and the CLint scaled at 2 μM [1] was 47.3 mL/min/kg. The half-life at 2 μM [1] was 1.22 h, the microsomal CLint at 2 μM [1] was 19 µL/min/mg and the “Predicted hepatic CL” value [2] was 2.16 mL/min/kg. For the same compound, the “Remaining Percentage (%)” value ([2]; With NADPH, 0 min) was 100.00%, the “Remaining Percentage (%)” value ([2]; With NADPH, 30 min) was 91.39% and the “Remaining Percentage (%)” value ([2]; With NADPH, 60 min) was 94.38%. For the same compound, the “Remaining Percentage (%)” value ([2]; Without NADPH, 0 min) was 100.00%, the “Remaining Percentage (%)” value ([2]; Without NADPH, 30 min) was 91.04% and the “Remaining Percentage (%)” value ([2]; Without NADPH, 60 min) was 100.94%. The CLint scaled at 2 μM [2] was 2.42 mL/min/kg, the half-life at 2 μM [2] was 12 h and the microsomal CLint at 2 μM [2] was 1.93 µL/min/mg. For the same compound, the “Predicted hepatic CL” value [3] was 12.94 mL/min/kg, the “Remaining Percentage (%)” value ([3]; With NADPH, 0 min) was 100.00% and the “Remaining Percentage (%)” value ([3]; With NADPH, 30 min) was 91.29%. The “Remaining Percentage (%)” value ([3]; With NADPH, 60 min) was 75.35%, the “Remaining Percentage (%)” value ([3]; Without NADPH, 0 min) was 100.00% and the “Remaining Percentage (%)” value ([3]; Without NADPH, 30 min) was 107.31%. The “Remaining Percentage (%)” value ([3]; Without NADPH, 60 min) was 109.93%, the CLint scaled at 2 μM [3] was 16.9 mL/min/kg and the half-life at 2 μM [3] was 2.45 h. For the same compound, the microsomal CLint at 2 μM [3] was 9.44 µL/min/mg, the “Predicted hepatic CL” value [4] was 6.52 mL/min/kg and the “Remaining Percentage (%)” value ([4]; With NADPH, 0 min) was 100.00%. The “Remaining Percentage (%)” value ([4]; With NADPH, 30 min) was 105.41%, the “Remaining Percentage (%)” value ([4]; With NADPH, 60 min) was 95.29% and the “Remaining Percentage (%)” value ([4]; Without NADPH, 0 min) was 100.00%. The “Remaining Percentage (%)” value ([4]; Without NADPH, 30 min) was 87.39%, the “Remaining Percentage (%)” value ([4]; Without NADPH, 60 min) was 85.47% and the CLint scaled at 2 μM [4] was 7.03 mL/min/kg. It also gave a half-life at 2 μM [4] of 14.4 h and a microsomal CLint at 2 μM [4] of 1.61 µL/min/mg.

With `[2H]C([2H])([2H])N(C([2H])([2H])[2H])C([2H])([2H])C([2H])([2H])c1cn(C(=O)CCCCCCC/C=C\C/C=C\CCCCC)c2cccc(F)c12` [Compound I-9, (9Z,12Z)-1-(3-(2-(Bis(methyl-d3)amino)ethyl-1,1,2,2-d4)-4-fluoro-1H-indol-1-yl)octadeca-9,12-dien-1-one] the IC50 (human 5-HT2A receptor) was 2 to 5 µM.
